Data from ChEMBL document CHEMBL4483862, “Open-source discovery of chemical leads for next-generation chemoprotective antimalarials” (2018).

Test system: Plasmodium berghei
Experiment: Luciferase/luciferin-expressing antifolate-resistant parasites were used to infect a culture of HepG2 cells that were pre-incubated with compounds. Infected hepatocytes emit light due to the luciferase reaction. Assay results are presented as the percent inhibition of light emission compared to control. […]
Type: functional
Details: sporozoite; for IC90: read-out: LUCIFERASE INFECTION ASSAY - IC90
[1] = read-out: LUCIFERASE INFECTION ASSAY - IC50

Compound: NC(=O)c1ccc(Nc2nc(-c3cccnc3)nc3ccccc23)cc1
- IC50 (PBLUC_HILL_SLOPE 4.21, PBLUC_R_SQUARED 0.0982, read-out: LUCIFERASE INFECTION ASSAY - IC50): > 10 µM
- IC90: > 10 µM

Compound: COc1ccccc1Nc1nc(-c2c(-c3ccc(Cl)cc3Cl)noc2C)cs1
- IC50 [1]: 2.27 µM
- IC90: 7.32 µM

Compound: CCC(C)(C)C1CCC(NC(=O)c2ccc(OC)c(OC)c2OC)CC1 (centres undefined)
- IC50 [1]: > 10 µM
- IC90: > 10 µM

Compound: N=c1c2ccccc2nnn1-c1ccc(C(F)(F)F)cc1
- IC50 (PBLUC_HILL_SLOPE 2.81, PBLUC_R_SQUARED 0.81, read-out: LUCIFERASE INFECTION ASSAY - IC50): 3.32 µM
- IC90: 7.24 µM

Compound: CNc1nc2cnc(Nc3cccc(Oc4ccccc4)c3)cc2n1-c1ccccc1
- IC50 (HEPG2TOX_HILL_SLOPE 5.82, HEPG2TOX_R_SQUARED 0.501, PBLUC_HILL_SLOPE 8.19, PBLUC_R_SQUARED 0.453, read-out: LUCIFERASE INFECTION ASSAY - IC50): 8.37 µM
- IC90: > 10 µM

Compound: Cc1cc(O)c(C(=O)/C=C/c2cn(-c3ccccc3C)nc2-c2ccccc2)c(=O)o1
- IC50 (FFLUC_HILL_SLOPE 4.53, FFLUC_R_SQUARED 0.503, PBLUC_HILL_SLOPE 0.894, PBLUC_R_SQUARED 0.655, read-out: LUCIFERASE INFECTION ASSAY - IC50): 6.09 µM
- IC90: > 10 µM

Compound: CC(=O)Nc1cccc(-c2ccnc3c2CC(C(=O)NCc2cccs2)O3)c1 (centres undefined)
- IC50 (FFLUC_HILL_SLOPE 58.8, FFLUC_R_SQUARED 0.264, HEPG2TOX_HILL_SLOPE 13.5, HEPG2TOX_R_SQUARED 0.74, PBLUC_HILL_SLOPE 13.2, PBLUC_R_SQUARED 0.157, read-out: LUCIFERASE INFECTION ASSAY - IC50): 2.74 µM
- IC90: 3.24 µM

Compound: CC(C)C(C(=O)Nc1ccc(C#N)cc1)c1ccc(Cl)cc1 (centres undefined)
- IC50 (HEPG2TOX_HILL_SLOPE 0.183, HEPG2TOX_R_SQUARED 0.415, read-out: LUCIFERASE INFECTION ASSAY - IC50): > 10 µM
- IC90: > 10 µM

Compound: O=C(Nc1ccc(F)cc1F)c1cc(Cl)cc(Cl)c1O
- IC50 (PBLUC_HILL_SLOPE 2.53, PBLUC_R_SQUARED 0.435, read-out: LUCIFERASE INFECTION ASSAY - IC50): 4.75 µM
- IC90: > 10.4 µM

Compound: O=C(Nc1ccc(OC(F)(F)F)cc1)Nc1ccc2nc(-c3ccco3)nn2c1
- IC50 (PBLUC_HILL_SLOPE 672, PBLUC_R_SQUARED 0.263, read-out: LUCIFERASE INFECTION ASSAY - IC50): 7.48 µM
- IC90: 7.51 µM

Compound: c1ccc(-c2cc3c(NCCCN4CCN(c5ncccn5)CC4)ncnc3s2)cc1
- IC50 (HEPG2TOX_HILL_SLOPE 0.225, HEPG2TOX_R_SQUARED 0.56, PBLUC_HILL_SLOPE 1.89, PBLUC_R_SQUARED 0.636, read-out: LUCIFERASE INFECTION ASSAY - IC50): 1.47 µM
- IC90: 4.71 µM

Compound: CSc1sc(C(=O)Nc2ccc(F)c(Cl)c2)c(-c2ccc(Cl)cc2)c1C#N
- IC50 (FFLUC_HILL_SLOPE 1.91, FFLUC_R_SQUARED 0.467, read-out: LUCIFERASE INFECTION ASSAY - IC50): > 7.55 µM
- IC90: > 7.55 µM

Compound: COc1ccc(-n2nc(C)c3c2NC(=O)CC3c2ccc3c(c2)OCO3)cc1 (centres undefined)
- IC50 (HEPG2TOX_HILL_SLOPE 1.66, HEPG2TOX_R_SQUARED 0.931, PBLUC_HILL_SLOPE 1.06, PBLUC_R_SQUARED 0.555, read-out: LUCIFERASE INFECTION ASSAY - IC50): 1.33 µM
- IC90: > 8.74 µM

Compound: N#Cc1ccccc1S(=O)(=O)Nc1cccc(-n2cccn2)c1
- IC50 [1]: > 10 µM
- IC90: > 10 µM

Compound: CCOc1ccc(-n2c(SCC(=O)N(C)Cc3ccccc3)nc3ccccc32)cc1
- IC50 [1]: > 10 µM
- IC90: > 10 µM

Compound: COC(=O)C1=C(C)N(c2cccc(C(F)(F)F)c2)C(=S)NC1c1ccc(O)c(OC)c1 (centres undefined)
- IC50 (HEPG2TOX_HILL_SLOPE 1.61, 1.73, HEPG2TOX_R_SQUARED 0.946, 0.571, PBLUC_HILL_SLOPE 8.66, 0.516, PBLUC_R_SQUARED 0.631, 0.614, read-out: LUCIFERASE INFECTION ASSAY - IC50): 0.906 µM
- IC90: 1.57 µM

Compound: O=C1Nc2ccccc2SC1c1c(-c2ccc(Cl)cc2)cc2ccccn12 (centres undefined)
- IC50 [1]: > 10 µM
- IC90: > 10 µM

Compound: Cc1cc(C(=O)CSc2nc3ccccc3c(=O)n2-c2ccc(OC(F)F)cc2)c(C)n1-c1ccc(F)c(Cl)c1
- IC50 (FFLUC_HILL_SLOPE 1.77, FFLUC_R_SQUARED 0.792, PBLUC_HILL_SLOPE 12.5, PBLUC_R_SQUARED 0.0853, read-out: LUCIFERASE INFECTION ASSAY - IC50): 9.61 µM
- IC90: > 10 µM

Compound: C=CCn1c(C)cc(C(=O)Cn2c(=O)c(=O)n(Cc3ccccc3)c3ccc(Cl)cc32)c1C
- IC50 [1]: > 10 µM
- IC90: > 10 µM

Compound: FC(F)(F)c1cccc(-c2cnc3ccc(-c4cccs4)nn23)c1
- IC50 [1]: > 10 µM
- IC90: > 10 µM

Compound: COc1cccc(-c2csc(-c3nnc4n3-c3ccccc3SC4)n2)c1
- IC50 [1]: 2.69 µM
- IC90: 3.9 µM

Compound: O=C1C=CC(=O)N1c1cc(Cl)ccc1Cl
- IC50 (FFLUC_HILL_SLOPE 10.4, FFLUC_R_SQUARED 0.533, read-out: LUCIFERASE INFECTION ASSAY - IC50): > 13.6 µM
- IC90: > 13.6 µM

Compound: N#CC(C#N)=NNc1cccc(Cl)c1 [CARBONYL CYANIDE M-CHLOROPHENYLHYDRAZONE]
- IC50 [1]: 3.84 µM
- IC90: 13.9 µM

Compound: O=C1C=C/C(=N\Nc2ccccc2C(F)(F)F)c2cccnc21
- IC50 (HEPG2TOX_HILL_SLOPE 0.86, HEPG2TOX_R_SQUARED 0.964, PBLUC_HILL_SLOPE 13.8, PBLUC_R_SQUARED 0.7, read-out: LUCIFERASE INFECTION ASSAY - IC50): 1.12 µM
- IC90: 1.31 µM

Compound: NS(=O)(=O)c1ccc(N/N=C/c2cn(-c3ccccc3)nc2-c2cccs2)c([N+](=O)[O-])c1
- IC50 [1]: > 10 µM
- IC90: > 10 µM

Compound: COc1ccccc1NC(=O)c1cc2ccccc2c(CN2CCN(c3ccccc3)CC2)c1O
- IC50 [1]: > 10 µM
- IC90: > 10 µM

Compound: O=C(Nc1cc(C(F)(F)F)cc(C(F)(F)F)c1)c1cc2ccccc2s1
- IC50 (PBLUC_HILL_SLOPE 0.25, PBLUC_R_SQUARED 0.0524, read-out: LUCIFERASE INFECTION ASSAY - IC50): > 8.48 µM
- IC90: > 8.48 µM

Compound: C=C(CS(=O)(=O)c1ccccc1)C(=O)Nc1ccc(C(F)(F)F)cc1
- IC50 (HEPG2TOX_HILL_SLOPE 10, HEPG2TOX_R_SQUARED 0.961, PBLUC_HILL_SLOPE 2.89, PBLUC_R_SQUARED 0.554, read-out: LUCIFERASE INFECTION ASSAY - IC50): 3.7 µM
- IC90: 7.91 µM

Compound: CCOc1cccc(-c2cn3c(-c4ccc(CO)cc4)cnc3cn2)c1
- IC50 (HEPG2TOX_HILL_SLOPE 0.91, HEPG2TOX_R_SQUARED 0.879, PBLUC_HILL_SLOPE 2.96, PBLUC_R_SQUARED 0.698, read-out: LUCIFERASE INFECTION ASSAY - IC50): 0.395 µM
- IC90: 0.828 µM

Compound: CCOC(=O)c1c(C)[nH]c(C(=O)COC(=O)c2[nH]nc3ccccc23)c1C
- IC50 (HEPG2TOX_HILL_SLOPE 3.07, HEPG2TOX_R_SQUARED 0.979, PBLUC_HILL_SLOPE 5.58, PBLUC_R_SQUARED 0.622, read-out: LUCIFERASE INFECTION ASSAY - IC50): 8.71 µM
- IC90: > 10 µM

Compound: COc1cc(/C=C/C(=O)c2cccc(Cl)c2)cc(Br)c1OCC(=O)N(C)C
- IC50 (HEPG2TOX_HILL_SLOPE 4.93, 12.4, HEPG2TOX_R_SQUARED 0.976, 0.384, PBLUC_HILL_SLOPE 9.73, 46.2, PBLUC_R_SQUARED 0.151, 0.563, read-out: LUCIFERASE INFECTION ASSAY - IC50): 3.93 µM
- IC90: 4.57 µM

Compound: COC(=O)c1ccc2c(=O)nc(CN3CCc4sccc4C3C)[nH]c2c1 (centres undefined)
- IC50 (PBLUC_HILL_SLOPE 11, PBLUC_R_SQUARED 0.235, read-out: LUCIFERASE INFECTION ASSAY - IC50): > 10 µM
- IC90: > 10 µM
